According to patent US10487071B2, “Bis-triazole compounds with anti-biofilm and anti-corrosion properties” (Université de Toulon, priority 2015, dated 2019):
Where two headings read alike, the source gives them in different places.

Tests used:
[1] = Gravimetry (weight loss), corrosion inhibition; details: mild steel in 1N HCl
Protocol: The corrosion rates were determined by electrochemical impedance spectroscopy measurements and gravimetry.
Weight loss measurements were performed on 2.5×2.0×0.1 cm rectangular mild steel coupons. The mild steel coupons were immersed into non-de-aerated HCl 1N solution in absence and presence of different concentrations of compounds of general formula (I). After the elapsed time, the coupons were taken out, washed, dried and weighed accurately. Experiments were duplicated.
Weight loss experiments were done to confirm the corrosion inhibitive properties of AS164.
The inhibition efficiency, IE (%), was estimated from the weight loss experiments using the following equation:
[formula] wherein CR^o and CR are respectively the corrosion rate in the absence and presence of AS164.

[2] = system: Pseudoalteromonas lipolytica (TC8); experiment: Anti-adhesion test, strain TC8; format: cell-based; details: for activity at 200 µM: 15 h, read-out: % of adhesion at 200 μM, TC8; for EC50: read-out: EC50 (effective concentration to inhibit 50% of the adhesion), TC8
Protocol: (§1) The anti-adhesion bioassays and toxicity tests are adapted from those disclosed in M. Camps, J.-F. Briand, L. Guentas-Dombrowsky, G. Culioli, A. Bazire and Y. Blache, Mar. Poll.
(§2) Bacterial strains were grown on Väätänen nine-salts solution (VNSS). When the stationary phase was reached, the bacterial suspension was centrifuged. Cells were then diluted in sterile artificial sea water (ASW) and introduced in microtiter plates (sterile black PS; Nunc, Fisher Scientific, France) with the tested compound (at eight concentrations in three replicates) in the presence of three controls: (i) non-specific staining control, (ii) adhesion control, and (iii) positive control. The maximum percentage of solvent (DMSO 2%) used to dilute the tested compound was also tested in triplicate as additional control. After incubation during an optimized adhesion time (moderately 15 h), non-adhered bacteria were eliminated and adhered cells were quantified after SYTO 61 (1 μM) staining. A percentage of inhibition was calculated per well. A sigmoid dose-response curve was obtained by plotting the percentage of inhibition as a function of the log of tested compound concentration, after mean (n=3) and standard deviation (SD) calculation per triplicate for each concentration. EC50 values were then calculated for each compound.

[3] = system: Pseudoalteromonas ulvae (TC14); experiment: Anti-adhesion test, strain TC14; format: cell-based; details: Pseudoalteromonas ulvae; for activity at 200 µM: 15 h; for EC50: read-out: EC50 (effective concentration to inhibit 50% of the adhesion)
Protocol: as §2
Pseudoalteromonas ulvae (TC14) was isolated in June 2010 in the Military Harbor of Toulon (Mediterranean Sea, France) as described in F. Brian-Jaisson, A. Ortalo-Magné, L. Guentas-Dombrowsky, F. Armougom, Y. Blache, M. Molmeret, Microb. Ecol., 2014, 68, 94-110.

Paracoccus sp. (4M6) = experiment: Anti-adhesion test, strain 4M6; format: cell-based; details: for activity at 200 µM: 15 h, read-out: % of adhesion at 200 μM, 4M6; for EC50: read-out: EC50 (effective concentration to inhibit 50% of the adhesion), 4M6
Protocol: as §1, §2

CN(C)CCCOc1ccc(CCn2cc(-c3cccc(-c4cn(CCc5ccc(OCCCN(C)C)c(Br)c5)nn4)c3)nn2)cc1Br [AS171, 3-(4-(2-(4-(3-(1-(4-(3-(dimethylamino)propoxy)-3-bromophenethyl)-1H-1,2,3-triazol-4-yl)phenyl)-1H-1,2,3-triazol-1-yl)ethyl)-2-bromophenoxy)-N,N-dimethylpropan-1-amine]
IE % ([1]; 0.1 ppm): 53.82%
IE % ([1]; 0.3 ppm): 86.91%
IE % ([1]; 0.5 ppm): 91.72%
IE % ([1]; 2 ppm): 97.25%
IE % ([1]; 10 ppm): 98.51%

COc1ccc(CCn2cc(CCCCc3cn(CCc4ccc(OC)c(Br)c4)nn3)nn2)cc1Br [NT3, 1-(3-bromo-4-methoxyphenethyl)-4-(4-(1-(3-bromo-4-methoxyphenethyl)-1H-1,2,3-triazol-4-yl)butyl)-1H-1,2,3-triazole]
activity at 200 µM ([2]; Pseudoalteromonas lipolytica): 56.9 ± 1.7%
activity at 200 µM [3]: 53.3 ± 6.3%
activity at 200 µM (Paracoccus sp. (4M6); Paracoccus): 50.9 ± 0.3%

tributyltin oxide [TBTO, reference compound]
EC50 ([2]; strain TC8): 7 ± 3 µM
EC50 (Paracoccus sp. (4M6); strain 4M6): 4 ± 3 µM

Oc1ccc(CCn2cc(CCCCc3cn(CCc4ccc(O)c(Br)c4)nn3)nn2)cc1Br [NT22, 4-(2-(4-(4-(1-(3-bromo-4-hydroxyphenethyl)-1H-1,2,3-triazol-4-yl)butyl)-1H-1,2,3-triazol-1-yl)ethyl)-2-bromophenol]
activity at 200 µM ([2]; Pseudoalteromonas lipolytica): 85.6 ± 2.1%
activity at 200 µM [3]: 54.4 ± 1.7%
activity at 200 µM (Paracoccus sp. (4M6); Paracoccus): 52.4 ± 2.3%

CN(C)CCCOc1ccc(CCn2cc(CCCc3cn(CCc4ccc(OCCCN(C)C)c(Br)c4)nn3)nn2)cc1Br [AS168, 3-(4-(2-(4-(3-(1-(4-(3-(dimethylamino)propoxy)-3-bromophenethyl)-1H-1,2,3-triazol-4-yl)propyl)-1H-1,2,3-triazol-1-yl)ethyl)-2-bromophenoxy)-N,N-dimethylpropan-1-amine]
activity at 200 µM ([2]; Pseudoalteromonas lipolytica): 59.9 ± 6.4%
activity at 200 µM [3]: 53.8 ± 5.9%
activity at 200 µM (Paracoccus sp. (4M6); Paracoccus): 77.1 ± 2.4%

Oc1ccc(CCn2cc(COCc3cn(CCc4ccc(O)c(Br)c4)nn3)nn2)cc1Br [NT26]
activity at 200 µM ([2]; Pseudoalteromonas lipolytica): 50.3 ± 5.79%
EC50 ([2]; Pseudoalteromonas lipolytica): 195 ± 10.7 µM
activity at 200 µM [3]: 40.2 ± 3.3%
EC50 [3]: 127 ± 27.5 µM
activity at 200 µM (Paracoccus sp. (4M6); Paracoccus): 47.8 ± 0.1%
EC50 (Paracoccus sp. (4M6); Paracoccus): 198 ± 4.1 µM

CN(C)CCOc1ccc(CCCn2cc(-c3ccc(-c4cn(CCCc5ccc(OCCN(C)C)c(Br)c5)nn4)cc3)nn2)cc1Br [SA31, 2-(4-(3-(4-(4-(1-(3-(4-(2-(dimethylamino)ethoxy)-3-bromophenyl)propyl)-1H-1,2,3-triazol-4-yl)phenyl)-1H-1,2,3-triazol-1-yl)propyl)-2-bromophenoxy)-N,N-dimethylethanamine]
IE % ([1]; 0.1 ppm): 80.79%
IE % ([1]; 0.3 ppm): 93.00%
IE % ([1]; 0.5 ppm): 95.44%
IE % ([1]; 2 ppm): 96.17%
IE % ([1]; 10 ppm): 96.56%

CN(C)CCOc1ccc(CCn2cc(CCCc3cn(CCc4ccc(OCCN(C)C)c(Br)c4)nn3)nn2)cc1Br [AS158]
IE % ([1]; 0.1 ppm): 53.41%
IE % ([1]; 0.3 ppm): 87.00%
IE % ([1]; 0.5 ppm): 91.72%
IE % ([1]; 2 ppm): 95.98%
IE % ([1]; 10 ppm): 97.17%
activity at 200 µM ([2]; Pseudoalteromonas lipolytica): 57 ± 2.2%
activity at 200 µM [3]: 55.8 ± 3.8%
activity at 200 µM (Paracoccus sp. (4M6); Paracoccus): 51.5 ± 3%

COc1ccc(CCn2cc(CNCc3cn(CCc4ccc(OC)c(Br)c4)nn3)nn2)cc1Br [NT7, bis((1-(3-bromo-4-methoxyphenethyl)-1H-1,2,3-triazol-4-yl)methyl)amine]
activity at 200 µM ([2]; Pseudoalteromonas lipolytica): 48.2 ± 2.1%
EC50 ([2]; Pseudoalteromonas lipolytica): 188 ± 3 µM
activity at 200 µM [3]: 37.4 ± 0.1%
EC50 [3]: 138 ± 8.7 µM
activity at 200 µM (Paracoccus sp. (4M6); Paracoccus): 46.3 ± 2.7%
EC50 (Paracoccus sp. (4M6); Paracoccus): 194 ± 8 µM

CN(C)CCOc1ccc(CCn2cc(CCCCCCc3cn(CCc4ccc(OCCN(C)C)c(Br)c4)nn3)nn2)cc1Br [AS160, 2-(4-(2-(4-(6-(1-(4-(2-(dimethylamino)ethoxy)-3-bromophenethyl)-1H-1,2,3-triazol-4-yl)hexyl)-1H-1,2,3-triazol-1-yl)ethyl)-2-bromophenoxy)-N,N-dimethylethanamine]
IE % ([1]; 0.1 ppm): 71.40%
IE % ([1]; 0.3 ppm): 92.14%
IE % ([1]; 0.5 ppm): 92.66%
IE % ([1]; 2 ppm): 96.06%
IE % ([1]; 10 ppm): 97.03%
activity at 200 µM ([2]; Pseudoalteromonas lipolytica): 54.3 ± 10.8%
activity at 200 µM [3]: 67.4 ± 4%
activity at 200 µM (Paracoccus sp. (4M6); Paracoccus): 59.5 ± 2.2%

CN(C)CCOc1ccc(CCn2cc(-c3cccc(-c4cn(CCc5ccc(OCCN(C)C)c(Br)c5)nn4)c3)nn2)cc1Br [AS161, 2-(4-(2-(4-(3-(1-(4-(2-(dimethylamino)ethoxy)-3-bromophenethyl)-1H-1,2,3-triazol-4-yl)phenyl)-1H-1,2,3-triazol-1-yl)ethyl)-2-bromophenoxy)-N,N-dimethylethanamine]
IE % ([1]; 0.1 ppm): 86.75%
IE % ([1]; 0.3 ppm): 86.21%
IE % ([1]; 0.5 ppm): 94.07%
IE % ([1]; 2 ppm): 97.10%
IE % ([1]; 10 ppm): 98.33%

COc1ccc(CCn2cc(CCCc3cn(CCc4ccc(OC)c(Br)c4)nn3)nn2)cc1Br [NT10, 1-(3-bromo-4-methoxyphenethyl)-4-(3-(1-(3-bromo-4-methoxyphenethyl)-1H-1,2,3-triazol-4-yl)propyl)-1H-1,2,3-triazole]
activity at 200 µM ([2]; Pseudoalteromonas lipolytica): 50 ± 4.9%
activity at 200 µM [3]: 50.4 ± 2.2%
activity at 200 µM (Paracoccus sp. (4M6); Paracoccus): 49.2 ± 0.8%
EC50 (Paracoccus sp. (4M6); Paracoccus): 182 ± 15.2 µM

Oc1ccc(CCn2cc(CCCc3cn(CCc4ccc(O)c(Br)c4)nn3)nn2)cc1Br [NT21, 4-(2-(4-(3-(1-(3-bromo-4-hydroxyphenethyl)-1H-1,2,3-triazol-4-yl)propyl)-1H-1,2,3-triazol-1-yl)ethyl)-2-bromophenol]
activity at 200 µM ([2]; Pseudoalteromonas lipolytica): 63%
activity at 200 µM [3]: 53 ± 4%
activity at 200 µM (Paracoccus sp. (4M6); Paracoccus): 83.4 ± 3.9%

CN(C)CCOc1ccc(CCn2cc(CCCCc3cn(CCc4ccc(OCCN(C)C)c(Br)c4)nn3)nn2)cc1Br [AS159, 2-(4-(2-(4-(4-(1-(4-(2-(dimethylamino)ethoxy)-3-bromophenethyl)-1H-1,2,3-triazol-4-yl)butyl)-1H-1,2,3-triazol-1-yl)ethyl)-2-bromophenoxy)-N,N-dimethylethanamine]
IE % ([1]; 0.1 ppm): 39.96%
IE % ([1]; 0.3 ppm): 89.62%
IE % ([1]; 0.5 ppm): 91.95%
IE % ([1]; 2 ppm): 95.63%
IE % ([1]; 10 ppm): 97.30%
activity at 200 µM ([2]; Pseudoalteromonas lipolytica): 58.4 ± 4.3%
activity at 200 µM [3]: 61.5 ± 1%
activity at 200 µM (Paracoccus sp. (4M6); Paracoccus): 57.4 ± 1.6%

COc1ccc(CCn2cc(COCc3cn(CCc4ccc(OC)c(Br)c4)nn3)nn2)cc1Br [NT6, 4-(((1-(3-bromo-4-methoxyphenethyl)-1H-1,2,3-triazol-4-yl)methoxy)methyl)-1-(3-bromo-4-methoxyphenethyl)-1H-1,2,3-triazole]
activity at 200 µM ([2]; Pseudoalteromonas lipolytica): 42.7 ± 6.5%
EC50 ([2]; Pseudoalteromonas lipolytica): 181 ± 21.3 µM
activity at 200 µM [3]: 38.4 ± 7.4%
EC50 [3]: 160 ± 33.5 µM
activity at 200 µM (Paracoccus sp. (4M6); Paracoccus): 44.9 ± 3.1%
EC50 (Paracoccus sp. (4M6); Paracoccus): 164 ± 6.3 µM

CN(C)CCCOc1ccc(CCn2cc(COCc3cn(CCc4ccc(OCCCN(C)C)c(Br)c4)nn3)nn2)cc1Br [AS173, 3-(4-(2-(4-(((1-(4-(3-(dimethylamino)propoxy)-3-bromophenethyl)-1H-1,2,3-triazol-4-yl)methoxy)methyl)-1H-1,2,3-triazol-1-yl)ethyl)-2-bromophenoxy)-N,N-dimethylpropan-1-amine]
IE % ([1]; 0.1 ppm): 46.78%
IE % ([1]; 0.3 ppm): 86.70%
IE % ([1]; 0.5 ppm): 92.47%
IE % ([1]; 2 ppm): 95.77%
IE % ([1]; 10 ppm): 97.95%
activity at 200 µM ([2]; Pseudoalteromonas lipolytica): 51.6 ± 1%
activity at 200 µM [3]: 41.7 ± 1.6%
EC50 [3]: 122 ± 59.1 µM
activity at 200 µM (Paracoccus sp. (4M6); Paracoccus): 53.7 ± 4%

Oc1ccc(CCn2cc(-c3cccc(-c4cn(CCc5ccc(O)c(Br)c5)nn4)c3)nn2)cc1Br [NT24]
activity at 200 µM ([2]; Pseudoalteromonas lipolytica): 66.5 ± 11.6%
activity at 200 µM [3]: 56.7 ± 1.3%
activity at 200 µM (Paracoccus sp. (4M6); Paracoccus): 61.5 ± 4.2%

CN(C)CCCOc1ccc(CCn2cc(CNCc3cn(CCc4ccc(OCCCN(C)C)c(Br)c4)nn3)nn2)cc1Br [AS174]
IE % ([1]; 0.1 ppm): 53.41%
IE % ([1]; 0.3 ppm): 87.00%
IE % ([1]; 0.5 ppm): 91.72%
IE % ([1]; 2 ppm): 95.98%
IE % ([1]; 10 ppm): 97.17%
activity at 200 µM ([2]; Pseudoalteromonas lipolytica): 55.4 ± 0.4%
EC50 ([2]; Pseudoalteromonas lipolytica): 185 ± 16.2 µM
activity at 200 µM [3]: 45 ± 0.8%
activity at 200 µM (Paracoccus sp. (4M6); Paracoccus): 56.3 ± 2.4%

CN(C)CCOc1ccc(CCn2cc(-c3ccc(-c4cn(CCc5ccc(OCCN(C)C)cc5)nn4)cc3)nn2)cc1 [SA11, 2-(4-(2-(4-(4-(1-(4-(2-(dimethylamino)ethoxy)phenethyl)-1H-1,2,3-triazol-4-yl)phenyl)-1H-1,2,3-triazol-1-yl)ethyl)phenoxy)-N,N-dimethylethanamine]
IE % ([1]; 0.1 ppm): 90.50%
IE % ([1]; 0.3 ppm): 93.32%
IE % ([1]; 0.5 ppm): 95.49%
IE % ([1]; 2 ppm): 96.95%
IE % ([1]; 10 ppm): 97.11%
